In patent US9464064B2, “HCV helicase inhibitors and methods of use thereof” (University of Kansas, priority 2011, dated 2016):

Target: T1, HCV NS3 helicase NS3h_1b(con1) (Hepatitis C virus genotype 1b, UniProt Q9WMX2)
T1 construct: truncated C-terminally His-tagged NS3 proteins lacking the N-terminal protease, called NS3h; His-tag (C); made in house
Experiment: MBHA screen of NCI mechanistic set library at 20 μM (percent inhibition, compound interference)
Assay type: biochemical
Conditions: compounds at 20 μM; for Inh. (%) (Inhibition): calculated from Equation 1
Outline: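 Molecular beacon-based DNA unwinding assay; compounds screened at 20 μM in triplicate, with DMSO-only negative and 500 nM dT20 positive controls. Fluorescence (ex 643/em 670 nm) was read before and 30 min after adding ATP to 1 mM. Percent inhibition came from the change relative to DMSO controls; interference from pre-ATP fluorescence versus DMSO controls.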

[1] = assay interference calculated with Equation 2 (fluorescence vs DMSO-only controls before ATP)
[2] = MBHA with DNA substrate, assay interference calculated with Equation 2

T1 sequence (Q9WMX2 1192-1657): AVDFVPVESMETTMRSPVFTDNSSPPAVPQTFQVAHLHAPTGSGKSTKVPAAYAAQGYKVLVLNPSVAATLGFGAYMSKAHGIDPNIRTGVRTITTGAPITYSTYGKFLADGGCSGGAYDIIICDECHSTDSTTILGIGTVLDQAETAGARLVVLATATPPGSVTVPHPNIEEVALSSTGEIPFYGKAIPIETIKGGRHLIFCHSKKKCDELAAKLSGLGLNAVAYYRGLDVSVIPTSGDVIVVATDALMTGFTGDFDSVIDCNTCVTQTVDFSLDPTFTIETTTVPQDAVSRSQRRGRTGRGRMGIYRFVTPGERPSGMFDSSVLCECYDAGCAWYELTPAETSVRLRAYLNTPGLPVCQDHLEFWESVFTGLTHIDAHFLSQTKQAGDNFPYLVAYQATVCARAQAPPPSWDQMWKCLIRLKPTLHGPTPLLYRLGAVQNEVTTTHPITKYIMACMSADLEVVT

| Compound | Inh. (%) (Inhibition) (MBHA with a DNA substrate) | Int.* (Ratio) (Interference) [1] | Int.* (Ratio) (Interference) [2] | Inh. (%) (Inhibition) (MBHA with DNA substrate) |
| --- | --- | --- | --- | --- |
| BrCCC[P+](c1ccccc1)(c1ccccc1)c1ccccc1.[Br-] [Compound 84074] | −31.4% | 1.11 Ratio |  |  |
| C=C1C(=O)O[C@@H]2C[C@@H](C)[C@@H]3C=CC(=O)[C@@]3(C)[C@@H](O)[C@H]12 [Compound 85236] |  |  | 1.20 Ratio | 0.4% |
| O=[N+]([O-])c1cccc2c(N=Nc3ccc4ccccc4c3O)c(O)cc(S(=O)(=O)[O-])c12.[Na+] [Compound 85561] |  |  | 0.90 Ratio | 68.8% |
| Cc1ccc2c(ccc(C=Cc3ccc(O)c4ncccc34)[n+]2C)c1 [Compound 85700] |  |  | 0.46 Ratio | 29.7% |
| CN(N=O)C(=O)N[C@@H]1[C@@H](O)[C@H](O)[C@@H](CO)O[C@@H]1O [Compound 85998] |  |  | 1.10 Ratio | −19.0% |
| Cc1c2c(cc3c1[nH]c1ccccc13)C=NCC2 [Compound 86100] |  |  | 1.00 Ratio | 18.6% |
| Cc1c2ccncc2cc2c1[nH]c1ccccc12 [Compound 87206] |  |  | 0.92 Ratio | 55.6% |
| O=c1cccccc1O [Compound 89303] |  |  | 0.93 Ratio | 15.8% |
| C[C@H]1CCC/C=C/[C@@H]2C[C@H](O)C[C@H]2[C@H](O)/C=C/C(=O)O1 [Compound 89671] | −5.9% | 1.04 Ratio |  |  |
| C=C(C)[C@@H]1CC[C@]2(C)CC[C@]3(C)[C@H](CC[C@@H]4[C@@]5(C)CC[C@H](O)C(C)(C)[C@@H]5CC[C@]43C)[C@@H]12 [Compound 90487] |  |  | 1.18 Ratio | −13.2% |
| CC(C)(C)C1CCC2(CC1)CCN(CCCN1CCOCC1)CC2 [Compound 90829] | −5.9% | 1.16 Ratio |  |  |
| CC1(C)O[C@@H]2C[C@H]3[C@@H]4C[C@H](F)C5=CC(=O)C=C[C@]5(C)[C@@]4(F)[C@@H](O)C[C@]3(C)[C@]2(C(=O)CO)O1 [Compound 92339] |  |  | 1.04 Ratio | −1.6% |
| CCCCCCCCCc1c(Cl)nc(Cl)nc1Cl [Compound 92510] |  |  | 1.00 Ratio | −14.2% |
| COc1cc(O)c2c(c1)C(=O)c1cc3c(c(O)c1C2=O)C(OC1OC(C)C(O)C(O)C1OC)C(OC)C(C)(O)C3=O (stereo not drawn) [Compound 93419] |  |  | 0.91 Ratio | 38.9% |
| CC1=CC(=C(c2ccc(N)cc2)c2ccc(N)cc2)C=CC1=N.Cl [Compound 93739] |  |  | 0.81 Ratio | −13.3% |
| CC(=O)NCCCCCCNC(C)=O [Compound 95580] | −3.8% | 0.93 Ratio |  |  |
| NC(=S)NN=Cc1ncccc1O [Compound 95678] |  |  | 0.98 Ratio | −9.0% |
| COC1(O)C(=O)c2ccccc2OC1(OC)c1ccccc1 (stereo not drawn) [Compound 95848] | 7.7% | 0.90 Ratio |  |  |
| CCN1/C(=C\C(C)=C\c2sc3ccccc3[n+]2CC)Sc2ccccc21.[I-] [Compound 96932] |  |  | 0.59 Ratio | 38.8% |
| COc1ccc2cc1Oc1ccc(cc1)CC1c3cc(c(OC)cc3CCN1C)Oc1c(OC)c(OC)cc3c1C(C2)N(C)CC3 (stereo not drawn) [Compound 97338] |  |  | 0.96 Ratio | −9.0% |
| CC1(c2cccc3ccccc23)OC(=O)c2ccccc21 (stereo not drawn) [Compound 97703] |  |  | 1.11 Ratio | −9.3% |
| CC(=O)c1ccc(Oc2ccc(/C(C)=N/N=C(N)N)cc2)cc1.O=[N+]([O-])O [Compound 97911] | 11.5% | 0.95 Ratio |  |  |
| [O-][Cl+3]([O-])([O-])[O-].c1ccc(-c2csc3c4ccccc4c4ccccc4[n+]23)cc1 [Compound 98904] |  |  | 0.89 Ratio | 41.2% |
| CN1CCC23c4ccccc4NC1C21CCN(C)C3Nc2ccccc21 [Compound 99016] |  |  | 1.10 Ratio | −8.6% |
| O=c1ccc2ccc(CBr)cc2o1 [Compound 99027] | 10.1% | 0.93 Ratio |  |  |
| Cn1c(=O)[nH]c2nncnc2c1=O [Compound 99733] |  |  | 1.02 Ratio | −17.9% |

| Compound | Inh. (%) (Inhibition) (MBHA with a DNA substrate) | Int.* (Ratio) (Interference) [1] | Int.* (Ratio) (Interference) [2] | Inh. (%) (Inhibition) (MBHA with DNA substrate) |
| --- | --- | --- | --- | --- |
| Cl.Cl.Nc1ccc(OCCCc2c(-c3ccccc3)nc(N)[nH]c2=O)cc1 [Compound 100856] |  |  | 0.98 Ratio | −11.6% |
| Nc1ncnc2c(C3OC(CO)C(O)C3O)[nH]nc12 (stereo not drawn) [Compound 102811] |  |  | 1.08 Ratio | 1.0% |
| COC(=O)[C@@H]1c2cc3c(c(O)c2[C@@H](OC)C[C@@]1(C)O)C(=O)c1c(O)cc2c(c1C3=O)O[C@@H]1O[C@@]2(C)[C@H](O)[C@@H](N(C)C)[C@@H]1O [Compound 102815] |  |  | 0.76 Ratio | −11.4% |
| CCC1CN2CCc3cc(OC)c(OC)cc3C2CC1CC1c2cc(OC)c(OC)cc2CCN1C(=O)C1CCCN1C(=O)OCc1ccccc1 (stereo not drawn) [Compound 103248] |  |  | 0.92 Ratio | −11.6% |
| O=C1OC(c2ccccc2)=N/C1=C\c1ccc(N(CCCl)CCCl)cc1 [Compound 104117] |  |  | 1.06 Ratio | −14.5% |
| CC1(C)N=C(N)N=C(N)N1c1ccc(CCCCc2ccc(Cl)cc2Cl)cc1 [Compound 104129] | −42.7% | 0.92 Ratio |  |  |
| COc1ccc(C(=O)/C(Br)=C\C(=O)O)cc1 [Compound 104801] |  |  | 1.00 Ratio | −9.5% |
| Nc1nc(Cl)nc2c1ncn2[C@H]1C[C@H](O)[C@@H](CO)O1 [Compound 105014] |  |  | 0.89 Ratio | 0.4% |
| NC1=C(Br)C(=O)c2ncccc2C1=O [Compound 105808] |  |  | 1.14 Ratio | 2.6% |
| Cc1ccc(N=Nc2c(O)ccc3ccccc23)cc1 [Compound 106296] | −5.2% | 1.23 Ratio |  |  |
| CO[C@H]1Nc2c(ccc(C)c2O)C(=O)N2C=C(/C=C/C(N)=O)C[C@@H]12 [Compound 106408] |  |  | 0.94 Ratio | 22.7% |
| COC(=O)c1ccc(=O)c2nc3/c(=C/O)c(O)cc(=O)c3[nH]c12 [Compound 106995] |  |  | 0.93 Ratio | −1.1% |
| CC(C)CCCC(=O)CCCCCCC(=O)CCN(O)C(=O)C(N)CO.O=S(=O)(O)O (stereo not drawn) [Compound 106997] |  |  | 0.96 Ratio | −2.2% |
| CC(/C=C/C(O)=C1/C(=O)CNC1=O)=C\[C@@H](C)[C@H]1O[C@]2(C)O[C@@H](C(=O)[C@@H]3O[C@@]32C)[C@@H]1C [Compound 107067] | −6.0% | 0.90 Ratio |  |  |
| CO[C@@H]1[C@@H](OC(=O)c2ccc(C)[nH]2)[C@@H](O)[C@H](Oc2ccc3c(O)c(NC(=O)c4c[nH]c(C(=O)Nc5c(O)c6ccc(O[C@@H]7OC(C)(C)[C@H](OC)[C@@H](OC(=O)c8ccc(C)[nH]8)[C@H]7O)c(C)c6oc5=O)c4C)c(=O)oc3c2C)OC1(C)C [Compound 107412] |  |  | 0.83 Ratio | 0.0% |
| O=C1C=C2C=CC3CC2(O1)C1CCCCN31 (stereo not drawn) [Compound 107415] |  |  | 0.97 Ratio | −15.2% |
| CCC1CN2CCc3cc(OC)c(OC)cc3C2CC1CC1c2cc(OC)c(OC)cc2CCN1C(=O)C(Cc1c[nH]c2ccccc12)NC(=O)OC(C)(C)C (stereo not drawn) [Compound 109350] |  |  | 0.92 Ratio | −9.3% |
| CN1CCCC2C(c3ccccc3)C(C3=NCCCC3)C(c3ccccc3)CC21.Cl (stereo not drawn) [Compound 109444] | 7.2% | 1.01 Ratio |  |  |
| N=C1C=C(N)C(=O)c2[nH]c(=O)ccc21 [Compound 111041] | −26.9% | 0.97 Ratio |  |  |
| CCOC(=O)c1cc2c(OC)cc(OC)cc2oc1=O [Compound 111119] |  |  | 1.16 Ratio | 6.3% |
| C=C(C)[C@@H]1CC[C@]2(C(=O)O)CC[C@]3(C)[C@H](CC[C@@H]4[C@@]5(C)CC[C@H](O)C(C)(C)[C@@H]5CC[C@]43C)[C@@H]12 [Compound 113090] | −29.5% | 1.00 Ratio |  |  |
| CC(C)(O)CCC(O)C(C)(O)C1CCC2(O)C3=CC(=O)C4(O)CC(O)C(O)CC4(C)C3CCC12C.CC(C)(O)CCC(O)C(C)(O)C1CCC2(O)C3=CC(=O)C4CC(O)C(O)CC4(C)C3CCC12C (stereo not drawn) [Compound 115493] | 7.3% | 0.94 Ratio |  |  |
| CCOC(=O)Cc1c(C)c2cc(C(=O)c3ccccc3)c(O)cc2oc1=O [Compound 115538] |  |  | 1.02 Ratio | −12.6% |
| Oc1[nH]c2ccccc2c1N=Nc1c(F)c(F)c(F)c(F)c1F [Compound 116535] |  |  | 0.93 Ratio | 5.9% |
| Cc1ccc([S+](c2ccccc2)c2cc(C)ccc2C)cc1.O=C(OC(C(=O)[O-])C(OC(=O)c1ccccc1)C(=O)O)c1ccccc1 (stereo not drawn) [Compound 116693] |  |  | 0.92 Ratio | −1.8% |
